Starred links: 1 amine or outer side, 2 acyl side, 3 side chain; linkers in the order of their positions; H or OH if unused. Positions of bridges follow the written chain, without caps; N, C: chain ends. Residues, ends and D or L forms follow the SMILES beside them. *: point of attachment. C20 diacid = O=C(O)CCCCCCCCCCCCCCCCCCC(=O)*; γGlu = O=C(O)[C@H](CCC(=O)[*:2])N[*:1]
Legend:
[1] = target: T1, human amylin receptor (amylin 3(a) receptor: human calcitonin receptor + RAMP-3) (Homo sapiens, UniProt O60896+P30988); test: Assay (II)a functional CRE-luciferase assay, human amylin receptor; assay type: cell-based; conditions: Table 2; BHK amylin 3(a)-receptor/CRE-luc cells
T1 construct: expressed in transfected cells; host or cells: BHK570
T1 sequence (P30988 25-474): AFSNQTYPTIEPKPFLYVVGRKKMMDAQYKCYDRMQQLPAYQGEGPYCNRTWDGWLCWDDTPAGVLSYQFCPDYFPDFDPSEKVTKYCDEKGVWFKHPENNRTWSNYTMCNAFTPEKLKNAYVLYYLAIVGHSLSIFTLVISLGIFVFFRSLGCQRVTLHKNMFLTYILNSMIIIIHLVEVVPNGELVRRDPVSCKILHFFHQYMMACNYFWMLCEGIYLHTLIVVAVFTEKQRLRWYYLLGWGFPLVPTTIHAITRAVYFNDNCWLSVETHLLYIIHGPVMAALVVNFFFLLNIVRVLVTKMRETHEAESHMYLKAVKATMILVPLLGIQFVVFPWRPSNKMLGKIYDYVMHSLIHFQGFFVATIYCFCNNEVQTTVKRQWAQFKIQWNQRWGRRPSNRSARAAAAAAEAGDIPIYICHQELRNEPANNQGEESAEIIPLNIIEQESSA
T1 sequence (O60896 24-148 partner): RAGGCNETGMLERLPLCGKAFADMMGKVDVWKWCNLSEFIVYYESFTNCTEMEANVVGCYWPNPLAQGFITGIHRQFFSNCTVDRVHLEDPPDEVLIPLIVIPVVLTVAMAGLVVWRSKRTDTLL

[2] = Assay (III) ThT fibrillation assay for physical stability; assay type: physicochemical
How it was run: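 Freshly prepared formulations, pH-adjusted, with 1 μM ThT; four or eight replicates incubated at 37 °C under 960 rpm orbital shaking. Fluorescence (ex 444/em 485 nm) read every 20 min; […]. Peptide concentration measured by RP-HPLC before and after the run.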

Compound	EC50 [1]	ThT pH 4.0 lag time (h) ([2]; ThT fibrillation assay)	ThT pH 4.0 lag time ([2]; Table 8)	ThT pH 4.0 lag time ([2]; Table 9)	ThT pH 4.0 lag time ([2]; ThT fibrillation assay)
CC[C@H](C)[C@H](NC(=O)[C@@H]1CCCN1C(=O)CNC(=O)[C@H](Cc1ccccc1)NC(=O)[C@H](CC(N)=O)NC(=O)[C@H](CC(N)=O)NC(=O)[C@H](CO)NC(=O)[C@H](CO)NC(=O)[C@H](Cc1c[nH]cn1)NC(=O)[C@@H](NC(=O)[C@H](CC(C)C)NC(=O)[C@H](Cc1ccccc1)NC(=O)[C@H](CCC(=O)O)NC(=O)[C@H](C)NC(=O)[C@H](CC(C)C)NC(=O)[C@H](CCCNC(=N)N)NC(=O)[C@H](CCC(N)=O)NC(=O)[C@@H](NC(=O)[C@H](C)NC(=O)[C@@H]1CSSC[C@H](NC(=O)[C@H](CCCCN)NC(=O)CC[C@H](NC(=O)CCCCCCCCCCCCCCCCCCC(=O)O)C(=O)O)C(=O)N[C@@H](CC(N)=O)C(=O)N[C@@H]([C@@H](C)O)C(=O)N[C@@H](C)C(=O)N[C@@H]([C@@H](C)O)C(=O)N1)[C@@H](C)O)C(C)C)C(=O)N[C@@H](CC(C)C)C(=O)N1CCC[C@H]1C(=O)N1CCC[C@H]1C(=O)N[C@H](C(=O)N[C@@H](CC(N)=O)C(=O)N[C@H](C(=O)NCC(=O)N[C@@H](CO)C(=O)N[C@@H](Cc1c[nH]cn1)C(=O)N[C@H](C(=O)N[C@@H](Cc1ccc(O)cc1)C(N)=O)[C@@H](C)O)C(C)C)[C@@H](C)O [Example 93, N-alpha-[(S)-4-Carboxy-4-(19-carboxynonadecanoylamino)butyryl]-[Glu14,His35]-pramlintide] ({C20 diacid-γGlu}-KCNTATCATQRLAEFLVHSSNNFGPILPPTNVGSHTY-NH2; disulfide 2-7 (inferred); C-terminus assumed)	0.136 nM	19 h	–	–	–
CC[C@H](C)[C@H](NC(=O)[C@@H]1CCCN1C(=O)CNC(=O)[C@H](Cc1ccccc1)NC(=O)[C@H](CC(N)=O)NC(=O)[C@H](CC(N)=O)NC(=O)[C@H](CO)NC(=O)[C@H](CO)NC(=O)[C@H](Cc1c[nH]cn1)NC(=O)[C@H](Cc1c[nH]cn1)NC(=O)[C@H](CC(C)C)NC(=O)[C@H](Cc1ccccc1)NC(=O)[C@H](CCC(=O)O)NC(=O)[C@H](C)NC(=O)[C@H](CC(C)C)NC(=O)[C@H](CCCNC(=N)N)NC(=O)[C@H](CCC(N)=O)NC(=O)[C@@H](NC(=O)[C@H](C)NC(=O)[C@@H]1CSSC[C@H](NC(=O)[C@H](CCCCN)NC(=O)[C@H](CCC(=O)O)NC(=O)CC[C@H](NC(=O)CCCCCCCCCCCCCCCCCCC(=O)O)C(=O)O)C(=O)N[C@@H](CC(N)=O)C(=O)N[C@@H]([C@@H](C)O)C(=O)N[C@@H](C)C(=O)N[C@@H]([C@@H](C)O)C(=O)N1)[C@@H](C)O)C(=O)N[C@@H](CC(C)C)C(=O)N1CCC[C@H]1C(=O)N1CCC[C@H]1C(=O)N[C@H](C(=O)N[C@@H](CC(N)=O)C(=O)N[C@H](C(=O)NCC(=O)N[C@@H](CO)C(=O)N[C@@H](Cc1c[nH]cn1)C(=O)N[C@H](C(=O)N[C@@H](Cc1ccc(O)cc1)C(N)=O)[C@@H](C)O)C(C)C)[C@@H](C)O [Example 56, N-alpha-[(S)-4-Carboxy-4-(19-carboxynonadecanoylamino)butyryl]-Glu-[Glu14,His17,His35]-pramlintide] ({C20 diacid-γGlu}-EKCNTATCATQRLAEFLHHSSNNFGPILPPTNVGSHTY-NH2; disulfide 3-8 (inferred))	0.299 nM	16 h	–	–	–
CC[C@H](C)[C@H](NC(=O)[C@H](CCC(=O)O)NC(=O)CNC(=O)[C@H](Cc1ccccc1)NC(=O)[C@H](CC(N)=O)NC(=O)[C@H](CC(N)=O)NC(=O)[C@H](CO)NC(=O)[C@H](CO)NC(=O)[C@H](CCCNC(=N)N)NC(=O)[C@H](Cc1c[nH]cn1)NC(=O)[C@H](CC(C)C)NC(=O)[C@H](Cc1ccccc1)NC(=O)[C@H](CCC(=O)O)NC(=O)[C@H](C)NC(=O)[C@H](CC(C)C)NC(=O)[C@H](CCCNC(=N)N)NC(=O)[C@H](CCC(N)=O)NC(=O)[C@@H](NC(=O)[C@H](C)NC(=O)[C@@H]1CSSC[C@H](NC(=O)[C@H](Cc2c[nH]cn2)NC(=O)CC[C@H](NC(=O)CCCCCCCCCCCCCCCCCCC(=O)O)C(=O)O)C(=O)N[C@@H](CC(N)=O)C(=O)N[C@@H]([C@@H](C)O)C(=O)N[C@@H](C)C(=O)N[C@@H]([C@@H](C)O)C(=O)N1)[C@@H](C)O)C(=O)N[C@@H](CC(C)C)C(=O)N[C@@H](CO)C(=O)N[C@@H](CCCNC(=N)N)C(=O)N[C@H](C(=O)N[C@@H](CC(N)=O)C(=O)N[C@H](C(=O)NCC(=O)N[C@@H](CO)C(=O)N[C@@H](CC(N)=O)C(=O)N[C@H](C(=O)N[C@@H](Cc1ccc(O)cc1)C(N)=O)[C@@H](C)O)C(C)C)[C@@H](C)O [Example 7, N-alpha-[(S)-4-Carboxy-4-(19-carboxynonadecanoylamino)butyryl]-[His1,Glu14,His17,Arg18,Glu25,Ser28,Arg29]-pramlintide] ({C20 diacid-γGlu}-HCNTATCATQRLAEFLHRSSNNFGEILSRTNVGSNTY-NH2; disulfide 2-7 (inferred); C-terminus assumed)	0.0779 nM	0 h	–	–	–
CC[C@H](C)[C@H](NC(=O)[C@@H]1CCCN1C(=O)CNC(=O)[C@H](Cc1ccccc1)NC(=O)[C@H](CC(N)=O)NC(=O)[C@H](CC(N)=O)NC(=O)[C@H](CO)NC(=O)[C@H](CO)NC(=O)[C@H](Cc1c[nH]cn1)NC(=O)[C@H](Cc1c[nH]cn1)NC(=O)[C@H](CC(C)C)NC(=O)[C@H](Cc1ccccc1)NC(=O)[C@H](CCC(=O)O)NC(=O)[C@H](C)NC(=O)[C@H](CC(C)C)NC(=O)[C@H](CCCNC(=N)N)NC(=O)[C@H](CCC(N)=O)NC(=O)[C@@H](NC(=O)[C@H](C)NC(=O)[C@@H]1CSSC[C@H](NC(=O)[C@H](Cc2c[nH]cn2)NC(=O)[C@H](Cc2c[nH]cn2)NC(=O)[C@H](Cc2c[nH]cn2)NC(=O)CC[C@H](NC(=O)CCCCCCCCCCCCCCCCCCC(=O)O)C(=O)O)C(=O)N[C@@H](CCCNC(=N)N)C(=O)N[C@@H]([C@@H](C)O)C(=O)N[C@@H](C)C(=O)N[C@@H]([C@@H](C)O)C(=O)N1)[C@@H](C)O)C(=O)N[C@@H](CC(C)C)C(=O)N1CCC[C@H]1C(=O)N1CCC[C@H]1C(=O)N[C@H](C(=O)N[C@@H](CC(N)=O)C(=O)N[C@H](C(=O)NCC(=O)N[C@@H](CO)C(=O)N[C@@H](CC(N)=O)C(=O)N[C@H](C(=O)N[C@@H](Cc1ccc(O)cc1)C(N)=O)[C@@H](C)O)C(C)C)[C@@H](C)O [Example 22, N-alpha-[(S)-4-Carboxy-4-(19-carboxynonadecanoylamino)butyryl]-His-His-[His1,Arg3,Glu14,His17]-pramlintide] ({C20 diacid-γGlu}-HHHCRTATCATQRLAEFLHHSSNNFGPILPPTNVGSNTY-NH2; disulfide 4-9 (inferred))	0.0985 nM	2.7 h	–	–	–
CC[C@H](C)[C@H](NC(=O)[C@@H]1CCCN1C(=O)CNC(=O)[C@H](Cc1ccccc1)NC(=O)[C@H](CC(N)=O)NC(=O)[C@H](CC(N)=O)NC(=O)[C@H](CO)NC(=O)[C@H](CO)NC(=O)[C@H](Cc1c[nH]cn1)NC(=O)[C@H](CCCNC(=N)N)NC(=O)[C@H](CC(C)C)NC(=O)[C@H](Cc1ccccc1)NC(=O)[C@H](CCC(=O)O)NC(=O)[C@H](C)NC(=O)[C@H](CC(C)C)NC(=O)[C@H](CCCNC(=N)N)NC(=O)[C@H](CCC(N)=O)NC(=O)[C@@H](NC(=O)[C@H](C)NC(=O)[C@@H]1CSSC[C@H](NC(=O)CNC(=O)CC[C@H](NC(=O)CCCCCCCCCCCCCCCCCCC(=O)O)C(=O)O)C(=O)N[C@@H](CC(N)=O)C(=O)N[C@@H]([C@@H](C)O)C(=O)N[C@@H](C)C(=O)N[C@@H]([C@@H](C)O)C(=O)N1)[C@@H](C)O)C(=O)N[C@@H](CC(C)C)C(=O)N1CCC[C@H]1C(=O)N1CCC[C@H]1C(=O)N[C@H](C(=O)N[C@@H](CC(N)=O)C(=O)N[C@H](C(=O)NCC(=O)N[C@@H](CO)C(=O)N[C@@H](CC(N)=O)C(=O)N[C@H](C(=O)N1CCC[C@H]1C(N)=O)[C@@H](C)O)C(C)C)[C@@H](C)O [Example 88, N-alpha-[(S)-4-Carboxy-4-(19-carboxynonadecanoylamino)butyryl]-[Gly1,Glu14,Arg17,Pro37]-pramlintide] ({C20 diacid-γGlu}-GCNTATCATQRLAEFLRHSSNNFGPILPPTNVGSNTP-NH2; disulfide 2-7 (inferred); C-terminus assumed)	0.036 nM	>45 h	>45 h	>45 h	>45 h
